{
  "source": "patent US20050233413A1",
  "about": "“Neuroprotective polypeptides and methods of use” (priority 2002, published 2005)",
  "format_in_all_cases": "cell-based",
  "key": {"[1]": {"system": "primary cultured neurons treated with 25 μM Aβ1-43", "details": "for Calcein fluorescence, percentage of neurons without treatment: 72 hours, means±S.D.", "procedure": "(§1) In one assay, transfection with V642I-APP causes cell death in F11 neuronal hybrid cells. In the other, treatment with Aβ peptides causes cell death in primary cultured cortical neurons.\n(§2) The primary culture of mouse cortical neurons was performed in poly-L-lysine-coated 24-well plates or 96-well plates (Sumitomo Bakelite, Akita, Japan), in the absence of serum and the presence of N2 supplement, as described previously. The purity of neurons by this method was >98%. Prepared neurons (for neurons seeded in 96-well plates: 2.5×10^4 or 5×10^4 cells/well, 100 μl culture medium/well; for neurons seeded in 24-well plates: 1.25×10^5 cells/well, 250 μl culture medium/well) were preincubated with or without 10 μM (in case for the experiment with 10 μM HN) synthetic HN for 16 hr, and treated with 25 μM Aβ in the presence or absence of 10 μM HN for 72 hr, respectively. As primary neurons were vulnerable to transient dryness during medium exchange, we treated neurons with 25 μM Aβ as follows. First, a half volume (50 μl for neurons in 96-well plates; 125 μl for neurons in 24-well plates) of old medium was discarded. Then, the same volume (50 μl for neurons in 96-well plates; 125 μl for neurons in 24-well plates) of prewarned fresh medium containing 10 μM HN and 50 μM Aβ (Aβ was directly resolved) was added to the culture. The Aβ peptides used at 25 μM to induce neurotoxicity formed aggregation in the medium during the cell culture at 37° C. for 72 hr. as described. The WST-8 cell viability assay was performed, using Cell Counting Kit-8 (Wako Pure Chemical Industries, Osaka, Japan), as described previously.\n(§3) Calcein assay was performed with Calcein-AM {3′,6′-di-(O-acetyl)-2′,7′-bis [N,N-bis(carboxymethyl)aminomethyl] fluorescein, tetraacetoxymethyl ester; Dojindo}, as described previously. These assays were simultaneously performed in the experiments with neurons seeded in 96-well plates, as follows. Seventy-two hours after Aβ treatment, cells were added with the mixture of 10 μl WST-8 solution and 1 μl of 600 μM Calcein-AM. After 2 hr incubation in a CO2 incubator at 37° C., WST-8 absorbance was measured as OD450. After exchanging the medium to PBS to lower the background, Calcein-specific fluorescence (ex=485 nm, em=535 nm) was observed by fluorescence microscopy or measured by a spectrofluorometer (Wallac1420 ARVOsx Multi Label Counter). Most cell viability data using Calcein assay and WST-8 assay were obtained from neurons seeded at 5×10^4 cells/well in 96-well plates (high-density neurons) and confirmed by both assays with the cells seeded at 2.5×10^4 cells/well (low-density neurons).\nSome experiments for Calcein assay were performed with neurons seeded in 24-well plates. […] In most experiments using primary neurons, four independent experiments were performed and the means? S. D. of the results were discussed."}, "[2]": {"system": "F11 cells transfected with V642I-APP cDNA", "assay": "F11 cell death by V642I-APP transfection (Trypan blue exclusion)", "details": "for % dead cells of total cells: 72 hr after transfection; for cytotoxicity by V642I-APP in the presence of peptide (% dead cells of total cells): each peptide 10 μM, V642I-APP alone 53.7±1.2%, without transfection 9.0±1.4", "from_the_text": "as §1\n(§4) F11 cells, the hybrid of a rat embryonic-day-13 primary cultured primary neuron and a mouse neuroblastoma cell, are one of the best models for primary cultured neurons as they carry representative characteristics of primary neurons, such as generation of action potentials without differentiation by NGF [22]. They have been used in various studies of is neuronal functions. Using these cells, the underlying mechanisms for cytotoxicity by V642I-APP have well been analyzed. Cytotoxicity by V642 mutants of APP has also been confirmed in multiple different systems. F11 cells were grown in Ham's F-12 (GibcoBRL, Gaithersburg, Md.) plus 18% fetal bovine serum (FBS; Hyclone, Logan, Utah) and antibiotics, as described previously. F11 cells (7×10^4 cell/well in a 6-well plate cultured in Ham's F-12 plus 18% FBS for 12-16 hr) were transfected with plasmids encoding FAD genes by lipofection [FAD cDNA 2 μg, LipofectAMINE 4 μl, PLUS reagent 8 μl (GibcoBRL)] in the absence of serum for 3 hr, and were incubated with Ham's F-12 plus 18% FBS for 2 hr. Then, culture media were changed to Ham's F-12 plus 10% FBS with or without HN peptides, and cells were cultured for an additional 67 hr. Seventy-two hr after transfection, cell mortality was measured by Trypan blue exclusion assay, performed as follows. Cells were suspended by pipetting gently, and 50 μl of 0.4% (finally 0.08%) Trypan blue solution (Sigma, St Louis, Mo.) was mixed with 200 μl of the cell suspension at room temperature. Stained cells were counted within 3 min after the mixture with Trypan blue solution."}, "[3]": {"system": "Aβ and four FAD genes (V642I-APP, NL-APP, M146L-PS1, and N141I-PS2)", "details": "Table 5, marked *", "from_the_text": "as §4, §2\nas §3, with “Most cell viability data using Calcein assay and WST-8 assay were obtained from neurons seeded at 5×10^4 cells/well in 96-well plates (high-density neurons) and confirmed by both assays with the cells seeded at 2.5×10^4 cells/well (low-density neurons).” left out"}, "[4]": {"system": "Aβ and V642I-APP", "details": "Table 5, marked **", "from_the_text": "as §4, §2\nas §3, with “Most cell viability data using Calcein assay and WST-8 assay were obtained from neurons seeded at 5×10^4 cells/well in 96-well plates (high-density neurons) and confirmed by both assays with the cells seeded at 2.5×10^4 cells/well (low-density neurons).” left out"}},
  "note": "pIC50: −log10 of the molar value. Read-outs that look alike come from different tables or passages of the source. Where no end group is shown, it is not given here. [ ]: non-standard residue; d: D form. pS = N[C@@H](COP(=O)(O)O)C(=O)O",
  "data": [
    {"substance": "MAPRGFSALLLLTSEIDLPVKRRA [HNA, reference compound]", "values": [
      {"measurement": "neuroprotective action against Aβ1-43 (in words)", "setting": "[1]; 25 μM Aβ1-43, primary neurons", "result": "completely inactive"},
      {"measurement": "cytoprotective action against V642I-APP (in words)", "setting": "[2]; F11 cells", "result": "completely inactive"},
      {"measurement": "Full protection", "setting": "[3]", "result": "NE* (the corresponding peptide had no cytoprotective effect at 10 μM)"},
      {"measurement": "pIC50", "setting": "[3]; read-out: IC50", "result": "< 5.00"}
    ]},
    {"substance": "MAPRGFSCLLLLT(p-S)EIDLPVKRRA (MAPRGFSCLLLLT[pS]EIDLPVKRRA) [P-S14 HN, p-S is phosphorylated L-Ser]", "values": [
      {"measurement": "Calcein fluorescence, percentage of neurons without treatment", "setting": "[1]; 25 μM Aβ1-43 + 10 pM peptide, Aβ alone 8.9 ± 0.8", "result": "8.6 ± 0.3", "unit": "%"},
      {"measurement": "Calcein fluorescence, percentage of neurons without treatment", "setting": "[1]; 25 μM Aβ1-43 + 100 pM peptide", "result": "8.6 ± 0.4", "unit": "%"},
      {"measurement": "Calcein fluorescence, percentage of neurons without treatment", "setting": "[1]; 25 μM Aβ1-43 + 1 nM peptide", "result": "8.9 ± 0.1", "unit": "%"},
      {"measurement": "Calcein fluorescence, percentage of neurons without treatment", "setting": "[1]; 25 μM Aβ1-43 + 10 nM peptide", "result": "8.6 ± 0.3", "unit": "%"},
      {"measurement": "Calcein fluorescence, percentage of neurons without treatment", "setting": "[1]; 25 μM Aβ1-43 + 100 nM peptide", "result": "8.6 ± 0.1", "unit": "%"},
      {"measurement": "Calcein fluorescence, percentage of neurons without treatment", "setting": "[1]; 25 μM Aβ1-43 + 1 μM peptide", "result": "85.8 ± 4.1", "unit": "%"},
      {"measurement": "Calcein fluorescence, percentage of neurons without treatment", "setting": "[1]; 25 μM Aβ1-43 + 10 μM peptide", "result": "104.1 ± 1.7", "unit": "%"},
      {"measurement": "% dead cells of total cells", "setting": "[2]; V642I-APP + 10 pM peptide, means±S.D., V642I-APP alone 52.9 ± 1.1", "result": "56.5 ± 4.1", "unit": "%"},
      {"measurement": "% dead cells of total cells", "setting": "[2]; V642I-APP + 100 pM peptide", "result": "56.3 ± 2.7", "unit": "%"},
      {"measurement": "% dead cells of total cells", "setting": "[2]; V642I-APP + 1 nM peptide", "result": "54.3 ± 1.2", "unit": "%"},
      {"measurement": "% dead cells of total cells", "setting": "[2]; V642I-APP + 10 nM peptide", "result": "53.4 ± 2.0", "unit": "%"},
      {"measurement": "% dead cells of total cells", "setting": "[2]; V642I-APP + 100 nM peptide", "result": "41.8 ± 1.8", "unit": "%"},
      {"measurement": "Full protection (minimal concentration that exerted full cytoprotection)", "setting": "[4]", "result": "˜10 μM"}
    ]},
    {"substance": "MAPRGFSCLLLLTEEIDLPVKRRA [(S14E)HN]", "values": [
      {"measurement": "cytotoxicity by V642I-APP in the presence of peptide (% dead cells of total cells)", "setting": "[2]", "result": "45.0±1.9", "unit": "%"}
    ]},
    {"substance": "MAPRGFSCLLLLTREIDLPVKRRA [(S14R)HN]", "values": [
      {"measurement": "cytotoxicity by V642I-APP in the presence of peptide (% dead cells of total cells)", "setting": "[2]", "result": "52.6±1.0", "unit": "%"}
    ]},
    {"substance": "MAPRGFSCLLLLTTEIDLPVKRRA [(S14T)HN]", "values": [
      {"measurement": "cytotoxicity by V642I-APP in the presence of peptide (% dead cells of total cells)", "setting": "[2]", "result": "54.0±2.3", "unit": "%"}
    ]},
    {"substance": "MAPRGFSCLLLLTWEIDLPVKRRA [(S14W)HN]", "values": [
      {"measurement": "cytotoxicity by V642I-APP in the presence of peptide (% dead cells of total cells)", "setting": "[2]", "result": "54.5±4.2", "unit": "%"}
    ]},
    {"substance": "PRGFACLLLLTGEIDLP [S7A HNG17, PRGFACLLLLTGEIDLP]", "values": [
      {"measurement": "pIC50", "setting": "[1]", "result": "~9.00"},
      {"measurement": "concentration of full neuroprotection against Aβ1-43", "setting": "[1]; 25 μM Aβ1-43", "result": "about 10 nM"},
      {"measurement": "Full protection (minimal concentration that exerted full cytoprotection)", "setting": "[4]", "result": "˜10 nM"}
    ]}
  ]
}
